Test results reported in patent publication US20250144067A1, “PERSONALIZED STARVATION THERAPY FOR CANCER” (Faeth Therapeutics, Inc., priority 2021, published 2025).
Structures can show the parent of a compound that is named as a salt.

Assays:
[1] = test system: NCI-H292 lung cancer cells; test: FDA drug screening, complete media vs cholesterol-free media without statin (TABLE 1); type: cell-based, human
[2] = test system: NCI-H292 lung cancer cells; test: FDA drug screening, complete media vs cholesterol-free media with simvastatin (TABLE 2); type: cell-based, human; settings: for Cholesterol-free media + simvastatin (0.04 μM) / Complete Media: NCI-H292 cells
[3] = Complete minus Cholesterol-free, greater than 0 enhanced anti-cancer activity, about 0 neutral, below 0 antagonists
[4] = NCI-H292 cells in cholesterol-free media without statin
[5] = NCI-H292 cells in complete media
[6] = FDA library drug in cholesterol-free media with simvastatin 0.04 μM
[7] = FDA library drug in complete media
[8] = complete media vs cholesterol-free media + simvastatin (0.04 μM), >0 enhanced anti-cancer activity, about 0 neutral, <0 antagonist
[9] = NCI-H292 cells, cholesterol-free media without statin, FDA drug library screen
[10] = NCI-H292 cells, complete media, FDA drug library screen
[11] = complete vs cholesterol-free media, >0 enhanced anti-cancer activity, about 0 neutral, <0 antagonist
[12] = cholesterol-free media with simvastatin 0.04 μM, FDA drug library screen (TABLE 2)
[13] = complete media, FDA drug library screen (TABLE 2)
[14] = complete media minus cholesterol-free media + simvastatin (0.04 μM), >0 enhanced anti-cancer activity, about 0 neutral, <0 antagonist
[15] = Complete minus Cholesterol-free, >0 enhanced anti-cancer activity, about 0 neutral, <0 antagonist
[16] = NCI-H292 cells, cholesterol-free media without statin
[17] = FDA drug library screen, cholesterol-free media with simvastatin 0.04 μM
[18] = FDA drug library screen, complete media
[19] = complete media minus cholesterol-free media + simvastatin, >0 enhanced anti-cancer activity, about 0 neutral, <0 antagonist
[20] = cholesterol-free media with simvastatin 0.04 μM, cell growth value in FDA drug screen
[21] = complete media, cell growth value in FDA drug screen
[22] = Complete minus Cholesterol-free, greater than 0 enhanced anti-cancer activity, about 0 neutral, below 0 antagonist
[23] = NCI-H292 cells, FDA drug library screen, cholesterol-free media without statin
[24] = NCI-H292 cells, FDA drug library screen, complete media

| Molecule | Difference [1, 3] | Cholesterol-free [1, 4] | Complete [1, 5] | Difference [2, 8] | Cholesterol-free [1, 9] | Complete [1, 10] | Cholesterol-free media + simvastatin (0.04 μM) [2, 12] | Complete Media [2, 13] | Difference [2, 14] | also measured |
| --- | --- | --- | --- | --- | --- | --- | --- | --- | --- | --- |
| Cc1ccccc1N1CCN(CCc2nnc3n2CCCC3)CC1 [Dapiprazole (hydrochloride)] | −0.49 | 1.532 | 1.043 | −0.27 |  |  |  |  |  | Cholesterol-free media + simvastatin (0.04 μM) [2, 6]: 1.337; Complete Media [2, 7]: 1.063 |
| CC(=O)O[C@H]1C[C@@]2(C)[C@@H](C[C@@H](O)[C@H]3[C@@]4(C)CC[C@@H](O)[C@@H](C)[C@@H]4CC[C@@]32C)/C1=C(\CCC=C(C)C)C(=O)O [Fusidic acid (sodium salt)] |  |  |  |  | 0.7301 | 1.107 | 0.9882 | 0.9484 | −0.04 | Difference [1, 11]: 0.38 |
| CC(C)(C)CC(=O)OCC(=O)[C@@]12OC(C)(C)O[C@@H]1C[C@H]1[C@@H]3CCC4=CC(=O)C=C[C@]4(C)[C@@]3(F)[C@@H](O)C[C@@]12C [Triamcinolone hexacetonide] |  |  |  | −0.40 |  |  |  |  |  | Difference [1, 15]: −0.20; Cholesterol-free [1, 16]: 0.7329; Complete ([1]; NCI-H292 cells, complete media): 0.5285; Cholesterol-free media + simvastatin (0.04 μM) [2, 6]: 1.053; Complete Media [2, 7]: 0.6525 |
| CCN1CCC[C@H]1CNC(=O)c1cc(S(N)(=O)=O)ccc1OC [Levosulpiride] | −0.54 | 1.287 | 0.7498 |  |  |  |  |  |  | Cholesterol-free media + simvastatin (0.04 μM) [2, 17]: 0.9156; Complete Media [2, 18]: 1.092; Difference [2, 19]: 0.18 |
| Nc1nc(O)c2ncn(COC(CO)CO)c2n1 [Ganciclovir] |  |  |  |  | 0.8931 | 0.9638 | 0.88 | 0.8599 | −0.02 | Difference [1, 15]: 0.07 |
| CC(C)(Sc1cc(C(C)(C)C)c(O)c(C(C)(C)C)c1)Sc1cc(C(C)(C)C)c(O)c(C(C)(C)C)c1 [Probucol] | −0.87 | 1.75 | 0.8825 | −0.21 |  |  |  |  |  | Cholesterol-free media + simvastatin (0.04 μM) ([2]; drug in cholesterol-free media with simvastatin 0.04 μM): 1.293; Complete Media ([2]; drug in complete media): 1.087 |
| CC#C[C@]1(O)CC[C@H]2[C@@H]3CCC4=CC(=O)CCC4=C3[C@@H](c3ccc(N(C)C)cc3)C[C@@]21C [Mifepristone] | −0.57 | 1.574 | 0.9996 | −0.29 |  |  |  |  |  | Cholesterol-free media + simvastatin (0.04 μM) [2, 6]: 1.308; Complete Media [2, 7]: 1.019 |
| CC(=O)Oc1c(C)cc(OCC(O)CNC(C)C)c(C)c1C (stereo not shown) [Metipranolol hydrochloride] |  |  |  |  | 0.8441 | 0.893 |  |  |  | Difference [1, 15]: 0.05; Cholesterol-free media + simvastatin (0.04 μM) [2, 20]: 0.8039; Complete Media [2, 21]: 0.8617; Difference [2, 19]: 0.06 |
| CS(=O)(=O)c1ccc([C@@H](O)[C@@H](CO)NC(=O)C(Cl)Cl)cc1 [Thiamphenicol] |  |  |  | −0.12 | 0.8085 | 0.9105 |  |  |  | Difference [1, 11]: 0.10; Cholesterol-free media + simvastatin (0.04 μM) [2, 17]: 0.911; Complete Media [2, 18]: 0.7958 |
| NCCC(O)(P(=O)(O)O)P(=O)(O)O [Pamidronic acid] |  |  |  |  |  |  | 1.09 | 1.049 | −0.04 | Difference [1, 22]: −0.18; Cholesterol-free [1, 23]: 0.8132; Complete [1, 24]: 0.6309 |
| CC(C)(C)c1ccc(CN2CCN(C(c3ccccc3)c3ccc(Cl)cc3)CC2)cc1 (stereo not shown) [Buclizine (dihydrochloride)] |  |  |  |  | 0.6562 | 1.363 |  |  |  | Difference [1, 11]: 0.71; Cholesterol-free media + simvastatin (0.04 μM) [2, 20]: 0.9719; Complete Media [2, 21]: 1.018; Difference [2, 19]: 0.05 |
| Indinavir (sulfate) | −0.65 | 1.599 | 0.946 |  |  |  | 0.8636 |  | 0.01 |  |
| CCC(=O)NC[C@@H]1C[C@H]1c1cccc2c1CCO2 [Tasimelteon] |  |  |  |  |  |  | 0.9943 | 0.9618 | −0.03 | Difference [1, 22]: −0.12; Cholesterol-free [1, 23]: 0.9406; Complete [1, 24]: 0.8228 |
| Merbromin |  |  |  |  | 1.294 | 1.544 | 1.023 | 1.006 |  | Difference ([1]; complete vs cholesterol-free media, […]): 0.25; Difference ([2]; complete media minus cholesterol-free media + simvastatin (0.04 μM), […]): −0.02 |
| Enalapril (maleate) |  |  |  |  |  |  |  |  |  | Cholesterol-free [1, 16]: 1.397; Difference ([1]; complete vs cholesterol-free media, greater than 0 enhanced anti-cancer activity, about 0 neutral, below 0 antagonists): −0.34; Cholesterol-free media + simvastatin (0.04 μM) [2, 17]: 1.132; Complete Media [2, 18]: 1.317; Difference [2, 19]: 0.19 |
